Assay results published in publication PMC11434868, “Synthesis and Antiproliferative Effect of 3,4,5-Trimethoxylated Chalcones on Colorectal and Prostatic Cancer Cells” (Pharmaceuticals, 2024).
Where two headings read alike, the source gives them in different places.

What was measured:
HCT116 [1] = assay: Trypan blue dye exclusion method on HCT116; type: cell-based, human
Description: (§1) Human CRC (HCT116 and HT-29) and PCa (DU145 and PC3) cell lines were purchased from the American Type Culture Collection (ATCC—LGC Standards, Molsheim, France). All cells were grown in RPMI 1640 medium supplemented with 10% FBS, 1% L-glutamine, 100 U/mL penicillin, and 100 μg/mL streptomycin. Cultures were maintained in a humidified atmosphere containing 5% CO2 at 37 °C. Cells were seeded in 75 cm^2 culture flasks at 1.2 × 10^4 cells/cm^2 for HCT116, DU145, and PC3 cells, and 2.0 × 10^4 for HT-29 cells. Cells were grown for 24 h in culture medium prior to exposure or not to obtain the synthesized compounds. Stock solutions (10^−2 M in DMSO) of each compound were diluted in culture medium to obtain appropriate final concentrations.
(§2) • (a) MTT assay: The antiproliferative effect of all compounds was determined using MTT assay (a metabolic activity test). Briefly, cells were seeded in 96-well culture plates at 4 × 10^3 cells/well for HCT116, PC3, and DU145 cells and 6 × 10^3 cells/well for HT-29 cells (100 µL/well), and grown for 24 h in culture medium prior to exposure or not to obtain compounds 1–15 with concentrations ranging from 5 nM to 50 μM. After 24 and 48 h of treatment, MTT (5 mg/mL in PBS) was added and incubated for another 3 h. MTT was then removed from the wells before adding 100 μL/well of DMSO. The optical density was detected with a microplate reader (Multiskan FC, Thermoscientific, Bordeaux, France) at 550 nm and cell viability was expressed as a percentage of each treatment condition compared to control cells. IC50 values were calculated for all compounds from the dose–response curve. Data are expressed as the arithmetic means ± standard error of the mean (SEM) of separate experiments. All experiments were performed at least in triplicate. • (b) Trypan blue dye exclusion method: Cells were grown for 24 h then treated with compounds 10 and 13 at indicated concentrations. After 48 h of treatment, cells were trypsinized and resuspended in complete medium. Each sample was mixed with Trypan blue solution (0.14% in HBSS, Invitrogen-GIBCO, ThermoFisher, Illkirch, France). Colored (non-viable) and dye-excluding (viable) cells were counted with the LUNA-II automated cell Counter (Logos Biosystems; MC2, Aubière, France). The control was normalized to 100% including viable and dead cells. The results indicated on the histograms were expressed as the percentage of cells compared to the control. IC50 values were determined from the percentages of viable cells compared to the control.

HT-29 [2] = assay: MTT assay, antiproliferative effect on HT-29; type: cell-based, human; details: Homo sapiens
Description: as §1, §2

DU145 = assay: Trypan blue dye exclusion method on DU145; type: cell-based, human
Description: as §1, §2

HCT116 [3] = assay: MTT assay, antiproliferative effect on HCT116; type: cell-based; details: Homo sapiens
Description: as §1, §2

[4] = system: caspase-3 and PARP in DU145 cells; assay: Western blot of apoptosis-related proteins in DU145; type: cell-based, human; details: DU145, 48 h;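 also: compared with untreated control cells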
Description: (§3) For total protein extraction, collected samples of each condition were washed in PBS. Then, the total cell pool was centrifuged at 200 g for 5 min at 4 °C and homogenized in RIPA lysis buffer (50 mM HEPES, pH 7.5, 150 mM NaCl, 1% sodium deoxycholate, 1% NP-40, 0.1% SDS, […] of aprotinin) containing protease inhibitors according to the manufacturer’s instructions. After quantification of protein levels using the Bradford method, proteins ([…]) were separated on 12.5% SDS-PAGE gels and transferred to PVDF membranes (GE Healthcare Life Science—Fisher Scientific). Membranes were probed with respective antibodies against human caspase-3, cleaved caspase-3, and PARP according to the manufacturer’s instructions. After incubation with appropriate secondary antibodies, blots were developed using the “ImmobilonWestern” substrate, following the manufacturer’s protocol, and G:BOX system (Syngene, Cambridge, UK). Membranes were then reblotted with human anti-β-actin used as a loading control.

[5] = system: caspase-3 and PARP in HT-29 cells; assay: Western blot of apoptosis-related proteins in HT-29; type: cell-based, human; details: HT-29, 48 h;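 also: compared with untreated control cells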
Description: as §3

HT-29 [6] = assay: Trypan blue dye exclusion method on HT-29; type: cell-based, human
Description: as §1, §2

PC3 [7] = assay: MTT assay, antiproliferative effect on PC3; type: cell-based; details: Homo sapiens
Description: as §1, §2

[8] = system: caspase-3 and PARP in HCT116 cells; assay: Western blot of apoptosis-related proteins in HCT116; type: cell-based, human; details: HCT116, 48 h;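 also: compared with untreated control cells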
Description: as §3

[9] = system: human CRC (HCT116 and HT-29) and human PCa (DU145 and PC3) cell lines; assay: MTT assay, summary statements over the cell lines; type: cell-based; details: 48 h, read-out: IC50 towards the selected cell lines
Description: as §1, §2

[10] = system: caspase-3 and PARP in PC3 cells; assay: Western blot of apoptosis-related proteins in PC3; type: cell-based, human; details: PC3, 48 h;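 also: compared with untreated control cells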
Description: as §3

PC3 [11] = assay: Trypan blue dye exclusion method on PC3; type: cell-based, human
Description: as §1, §2

IC50 (HCT116 [1]; Homo sapiens, HCT-116, 48 h, from percentages of viable cells, read-out: IC50 Trypan Blue Test HCT116): 43 nM
IC50 (HT-29 [2]; HT-29, 24 h, 24 h, read-out: IC50 HT-29 24 h): 41 ± 1 nM
IC50 (HT-29 [2]; HT-29, 48 h, 48 h, read-out: IC50 HT-29 48 h): 28 ± 1 nM
IC50 (DU145; Homo sapiens, DU-145, 48 h, from percentages of viable cells, read-out: IC50 Trypan Blue Test DU145): 40 nM
IC50 (HCT116 [3]; HCT-116, 24 h, read-out: IC50 HCT116 24 h): 282 ± 12 nM
IC50 (HCT116 [3]; HCT-116, 48 h, read-out: IC50 HCT116 48 h): 39 ± 1 nM
IC50 (HT-29 [6]; Homo sapiens, HT-29, 48 h, from percentages of viable cells, read-out: IC50 Trypan Blue Test HT-29): 21 nM
IC50 (PC3 [7]; PC-3, 24 h, read-out: IC50 PC3 24 h): 44 ± 6 nM
IC50 (PC3 [7]; PC-3, 48 h, read-out: IC50 PC3 48 h): 17 ± 5 nM
IC50 [9]: < 40 nM
IC50 ([9]; Homo sapiens): < 50 nM
IC50 (PC3 [11]; Homo sapiens, PC-3, 48 h, from percentages of viable cells, read-out: IC50 Trypan Blue Test PC3): 32 nM
Structure (SMILES): COc1cc(C(=O)/C=C/c2c[nH]c3ccccc23)cc(OC)c1OC [chalcone 10, (E)-3-(1H-indol-3-yl)-1-(3,4,5-trimethoxyphenyl)prop-2-en-1-one]
Dead cells (HCT116 [1]; HCT116, 48 h, 0.050 µM): 6.76%
Dead cells (HCT116 [1]; HCT116, 48 h, 0.100 µM): 0.85%
viability at 0.01 µM (HCT116 [1]; Homo sapiens, HCT-116, HCT116, 48 h, 0.010 µM, percentage of cells compared to control, read-out: Viable cells): 97.7%
viability at 0.05 µM (HCT116 [1]; Homo sapiens, HCT-116, HCT116, 48 h, 0.050 µM, read-out: Viable cells): 43.2%
viability at 0.1 µM (HCT116 [1]; Homo sapiens, HCT-116, HCT116, 48 h, 0.100 µM, read-out: Viable cells): 17.4%
Dead cells (DU145; DU145, 48 h, 0.010 µM): 2.21%
Dead cells (DU145; DU145, 48 h, 0.050 µM): 3.40%
Dead cells (DU145; DU145, 48 h, 0.100 µM): 5.30%
viability at 0.01 µM (DU145; Homo sapiens, DU-145, DU145, 48 h, 0.010 µM, read-out: Viable cells): 88.9%
viability at 0.05 µM (DU145; Homo sapiens, DU-145, DU145, 48 h, 0.050 µM, read-out: Viable cells): 40.6%
viability at 0.1 µM (DU145; Homo sapiens, DU-145, DU145, 48 h, 0.100 µM, read-out: Viable cells): 18.4%
PARP cleavage (89 kDa fragment) [4]: induced PARP cleavage
cleaved caspase-3 [4]: clearly observed
native PARP expression [4]: strong decreased expression
pro-caspase-3 expression [4]: decrease was less marked
PARP cleavage (89 kDa fragment) [5]: induced PARP cleavage
cleaved caspase-3 [5]: more weakly produced
native PARP expression [5]: strong decreased expression
pro-caspase-3 expression [5]: decreased
Dead cells (HT-29 [6]; HT-29, 48 h, 0.010 µM): 3.78%
Dead cells (HT-29 [6]; HT-29, 48 h, 0.050 µM): 3.36%
Dead cells (HT-29 [6]; HT-29, 48 h, 0.100 µM): 1.68%
viability at 0.01 µM (HT-29 [6]; Homo sapiens, HT-29, 48 h, 0.010 µM, read-out: Viable cells): 76.2%
viability at 0.05 µM (HT-29 [6]; Homo sapiens, HT-29, 48 h, 0.050 µM, read-out: Viable cells): 15.9%
viability at 0.1 µM (HT-29 [6]; Homo sapiens, HT-29, 48 h, 0.100 µM, read-out: Viable cells): 10.7%
PARP cleavage (89 kDa fragment) [8]: induced PARP cleavage
cleaved caspase-3 [8]: clearly observed
native PARP expression [8]: strong decreased expression
pro-caspase-3 expression [8]: decreased
PARP cleavage (89 kDa fragment) [10]: induced PARP cleavage
cleaved caspase-3 [10]: clearly observed
native PARP expression [10]: strong decreased expression
pro-caspase-3 expression [10]: decreased
viability at 0.01 µM (PC3 [11]; Homo sapiens, PC-3, PC3, 48 h, 0.010 µM, read-out: Viable cells): 91.9%
viability at 0.05 µM (PC3 [11]; Homo sapiens, PC-3, PC3, 48 h, 0.050 µM, read-out: Viable cells): 31.3%
viability at 0.1 µM (PC3 [11]; Homo sapiens, PC-3, PC3, 48 h, 0.100 µM, read-out: Viable cells): 16.5%
Dead cells (PC3 [11]; PC3, 48 h, 0.010 µM): 9.33%
Dead cells (PC3 [11]; PC3, 48 h, 0.100 µM): 4.44%
